Measurements taken from PubChem BioAssay (NCI).
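Growth conditions: 96-well plates. Treatment: test compound, 48 hours, 5 concentrations. Analysis: linear interpolation between bracketing concentrations; unreached endpoints set to highest concentration. GI50 = concentration required for 50% inhibition of growth. TGI: total growth inhibition.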

How the values were obtained:
Experiment in all cases: NCI-60 cell line screen, 48 h
OVCAR-5 ovarian = system: OVCAR-5 ovarian
HS 578T breast = system: HS 578T breast
SK-MEL-5 melanoma = system: SK-MEL-5 melanoma
HCT-116 colon = system: HCT-116 colon
MALME-3M melanoma = system: MALME-3M melanoma
RXF 393 renal = system: RXF 393 renal
SNB-75 CNS = system: SNB-75 CNS
SK-MEL-2 melanoma = system: SK-MEL-2 melanoma
LOX IMVI melanoma = system: LOX IMVI melanoma
TK-10 renal = system: TK-10 renal

Row | Compound | GI50 (OVCAR-5 ovarian) | TGI (OVCAR-5 ovarian) | GI50 (HS 578T breast) | TGI (HS 578T breast) | GI50 (SK-MEL-5 melanoma) | TGI (SK-MEL-5 melanoma) | GI50 (HCT-116 colon) | TGI (HCT-116 colon) | GI50 (MALME-3M melanoma) | TGI (MALME-3M melanoma) | GI50 (RXF 393 renal) | TGI (RXF 393 renal) | GI50 (SNB-75 CNS) | TGI (SNB-75 CNS) | GI50 (SK-MEL-2 melanoma) | TGI (SK-MEL-2 melanoma) | GI50 (LOX IMVI melanoma) | TGI (LOX IMVI melanoma) | GI50 (TK-10 renal) | TGI (TK-10 renal)
1 | CNc1nc(C)c(-c2nc(Nc3cccc(S(N)(=O)=O)c3)ncc2F)s1 | 0.0324 µM | 15.1 µM | 0.0429 µM | 3.97 µM | 0.0296 µM | 0.639 µM | < 0.0161 µM | 12.5 µM | 0.0797 µM | 0.187 µM | 0.0176 µM | 0.0301 µM | 0.044 µM | 0.147 µM | 0.0358 µM | 0.0939 µM | 0.0223 µM | 3.94 µM | 0.0644 µM | 1.17 µM
2 | CC(=N\O)/C(C)=N/O.CC(=N\O)/C(C)=N/O.CC(=N\O)/C(C)=N/O.CC(=N\O)/C(C)=N/O.[Cu].[Cu] | 19.3 µM | 34 µM | 29.6 µM | 65.9 µM | 17.8 µM | 32.2 µM | 19.2 µM | 35.6 µM | 17.7 µM | 32.4 µM | 21.5 µM | 39.3 µM | 17.1 µM | 31.8 µM | 17.4 µM | 31.4 µM | 19 µM | 35.3 µM | 19.1 µM | 33.2 µM
3 | CCc1ccc(-c2ccc(=O)n(-c3ccc(S(N)(=O)=O)cc3)n2)cc1 | > 64.4 µM | > 100 µM | 1.55 µM | 23.6 µM | 0.659 µM | > 27.6 µM | 0.951 µM | > 43.7 µM | 0.371 µM | 23.1 µM | 3.89 µM | 31.5 µM | 2.96 µM | 28 µM | 5.04 µM | 38.9 µM | 11.7 µM | > 100 µM | 13.2 µM | 38.3 µM
4 | C[C@@H]1COCCN1c1nc(-c2cnc(N)cc2C(F)F)nc(N2[C@H](C)COC[C@@H]2C)n1 | 0.392 µM | 16.5 µM | 0.128 µM | 0.611 µM | 0.307 µM | 2.03 µM | 0.485 µM | 14.5 µM | 0.0875 µM | 0.867 µM | 0.0668 µM | 0.485 µM | 0.0682 µM | 0.571 µM | 0.382 µM | 7.62 µM | 0.206 µM | 11.3 µM | 0.209 µM | 4.51 µM
5 | O=C(Nc1c(Cl)cc([N+](=O)[O-])cc1Cl)C(=O)C1C(=O)NC(=S)NC1=O |  | > 100 µM |  | > 100 µM |  | > 100 µM |  | > 100 µM |  | > 100 µM |  | > 100 µM |  | > 100 µM |  | > 100 µM |  | > 100 µM |  | > 100 µM
6 | C=C1C(=O)O[C@H]2[C@H]1CC/C(CNC(=O)/C=C/c1cccc(OC)c1)=C\CC[C@@]1(C)O[C@@H]21 | 2.05 µM | 5.36 µM | 2.2 µM | 11.2 µM | 1.69 µM | 3.18 µM | 0.545 µM | 1.94 µM | 1.48 µM | 3.3 µM | 1.05 µM | 2.33 µM | 1.82 µM | 8.09 µM | 1.47 µM | 3.31 µM | 1.28 µM | 2.63 µM | 1.15 µM | 2.5 µM
7 | COc1cc([C@@H]2c3cc4c(cc3C(Br)[C@H]3COC(=O)[C@H]23)OCO4)cc(OC)c1OC (stereo partly drawn) | 0.552 µM | > 100 µM | 0.142 µM | 0.707 µM | 0.209 µM | 0.488 µM | 0.207 µM | 0.784 µM | 51.3 µM | > 100 µM | 0.0815 µM | 6.48 µM | 0.271 µM | > 100 µM | 0.499 µM | > 100 µM | 0.264 µM | > 100 µM |  | > 100 µM
8 | CCCCCCOc1ccc(/C=N/NC(N)=S)cc1 | 12.8 µM | > 100 µM | 3.16 µM | 15 µM | 7.52 µM | 20.8 µM | 3.31 µM | 16.1 µM | 2.74 µM | 7.82 µM | 1.44 µM | 3.61 µM | 4.74 µM | 25.6 µM | 6.95 µM | > 49.9 µM | 3.78 µM | 21.1 µM | 5.54 µM | 30.1 µM
9 | N#Cc1cccc(C(=O)c2cnn(-c3ccc(F)cc3)c2N)c1 | > 25 µM | > 25 µM | > 25 µM | > 25 µM | > 25 µM | > 25 µM | > 25 µM | > 25 µM | > 25 µM | > 25 µM | > 23.4 µM | > 25 µM | > 11.5 µM | > 22.4 µM | 24.4 µM | > 25 µM | > 25 µM | > 25 µM | > 25 µM | > 25 µM
10 | CCON=C1C(C)(C)C(C)(C)C(C)(C)C1(C)C |  | > 100 µM |  | > 100 µM |  | > 100 µM |  | > 100 µM |  | > 100 µM |  | > 100 µM |  | > 100 µM |  | > 100 µM |  | > 100 µM |  | > 100 µM
11 | Cn1c(=O)c(Oc2cccc(F)c2)cc2cnc(NC3CCOCC3)nc21 | > 25 µM | > 25 µM | > 25 µM | > 25 µM | > 25 µM | > 25 µM | > 25 µM | > 25 µM | > 25 µM | > 25 µM | > 25 µM | > 25 µM | > 6.38 µM | > 25 µM | > 25 µM | > 25 µM | > 25 µM | > 25 µM | > 22 µM | > 25 µM
12 | O=Nc1c(-c2cccc([N+](=O)[O-])c2)nc2cnccn12 |  | 44 µM |  | > 100 µM |  | > 100 µM |  | 18.8 µM |  | 56.5 µM |  | > 100 µM |  | > 100 µM |  | 68.1 µM |  | 28.5 µM |  | 26.3 µM
13 | O=c1[nH]cnc2c1nnn2C1OC(CO)C(O)C1O (stereo not drawn) | 26.6 µM | > 100 µM | 4.27 µM | 69.8 µM | 5.59 µM | 30.3 µM | 3.88 µM | > 100 µM | 2.64 µM | > 59 µM | 1.62 µM | 32.2 µM | 2.43 µM | > 100 µM | 12.3 µM | > 100 µM | 0.779 µM | > 100 µM | 1.5 µM | > 30.2 µM
14 | O=[N+]([O-])c1cc(O)c(O)cc1-c1cn2ccsc2n1 | > 100 µM | > 100 µM |  | 36 µM | 16.3 µM | 54.8 µM | 31.1 µM | > 100 µM | > 100 µM | > 100 µM | > 100 µM | > 100 µM | > 100 µM | > 100 µM | 57.1 µM | > 100 µM | 52 µM | > 100 µM | 66.5 µM | > 100 µM
15 | Cc1ccccc1S(=O)(=O)N1[C@H](c2ccc(Cl)cc2)C(C(=O)N[C@@H](Cc2ccccc2)C(N)=O)=C[C@@H]1C(C)(C)C | 5.62 µM | 11.9 µM | 8.64 µM | 26.4 µM | 6.8 µM | 13.5 µM | 2.9 µM | 15.1 µM | 10.2 µM | 20.1 µM | 5.01 µM | 11.9 µM | 4.85 µM | 12 µM | 9.59 µM | 17.6 µM | 6.98 µM | 14 µM | 9.43 µM | 19.1 µM
